The results in this text go back to patent publication US4154839A, “2,6-Dimethyl -3-carboxymethoxy-4-(2-nitrophenyl)-5-carbisobutoxy-1,4-dihydropyridine” (priority 1975, dated 1979).

For one series, the system named is heart muscle. The series can be described thus: myocardial (heart) perfusion in canines, electromagnetic flow meter, sublingual administration. In kind it is in vivo. As to conditions: for % Increase in Heart Perfusion / Half-life duration (of heart perfusion increase): canines. The text has this:
The ability of the compound to assist in the perfusion action of the heart muscle can be conveniently observed in recognized pharmacological models. For example, the myocardial perfusion in canines can be observed utilizing an electromagnetic flow meter. Upon sublingual administration to canines, the following pharmacological manifestations are, for example, observed.

Series [1] can be described thus: blood pressure decrease in canines upon sublingual administration. The note with it: for Blood Pressure Decrease (%): canines. In kind it is in vivo.
Another series can be described thus: stability towards light. Type of series: physicochemical. The note with it: compared with previously known 1,4-dihydropyridines.
In a further series the test system is coronary perfusion. The series can be described thus: coronary activity / effect on coronary perfusion (general statement). Type of series: in vivo.

Each structure is given as a SMILES string.

On to `COC(=O)C1=C(C)NC(C)=C(C(=O)OCC(C)C)C1c1ccccc1[N+](=O)[O-]` (stereo not shown) [the compound, isobutyl methyl 1,4-dihydro-2,6-dimethyl-4-(2-nitrophenyl)-3,5-pyridinedicarboxylate], for which the “% Increase in Heart Perfusion” value in the series on heart muscle (0.003 mg/kg sublingual) came out at 23%; with heart muscle (0.01 mg/kg sublingual), 46%; in the series with heart muscle (0.1 mg/kg sublingual), 142%. Further, the “Half-life duration (of heart perfusion increase)” value was 1.67 h in the series on heart muscle (0.003 mg/kg sublingual), 2.22 h in the series on heart muscle (0.01 mg/kg sublingual) and 3.07 h with heart muscle (0.1 mg/kg sublingual). For the same compound, the “increase of perfusion of the heart muscle, dose dependence (in words)” value in the series with heart muscle (sublingual administration) was “increases the perfusion of the heart muscle and that this action is a function of dose”. In the series on heart muscle (sublingual administration), the “onset of action after sublingual administration” value is recorded as “a few minutes after sublingual administration”. For the same compound, the “total duration of action on heart muscle perfusion” value with heart muscle (sublingual administration, depending upon the dose) lay in the range of 2 to 6 h. Also, the “Blood Pressure Decrease (%)” value is given as “.phi” in series [1] (0.003 mg/kg sublingual), 5% in series [1] (0.01 mg/kg sublingual) and 13% in series [1] (0.1 mg/kg sublingual). Moreover, the “lowering of blood pressure (in words)” value in series [1] (sublingual administration) is “slight and equally long lasting lowering of blood pressure”. In addition, the stability towards light entry in the series “stability towards light” is recorded as “considerably greater stability towards light than previously known 1,4-dihydropyridines”. The “coronary activity, magnitude and length of action” value in the series on coronary perfusion (compared with any 1,4-dihydropyridine presently known) is “significantly greater than any 1,4-dihydropyridine presently known”. In the series on coronary perfusion (in vivo), the “effect on coronary perfusion (in words)” value was “powerful and long acting effect on coronary perfusion”.
